These results are taken from DBAASP.

≈ marks a conversion by molar mass, not a printed value.

The MIC is the lowest concentration found to suppress growth. Read a high MIC as weaker potency.

Among the test systems are Bacillus subtilis 168; Escherichia coli B; Pseudomonas aeruginosa; Staphylococcus aureus; Escherichia coli UB1005; Acinetobacter baumannii; Klebsiella pneumoniae.
Holding throughout (test): ≥ marks a high value that may be exact or a test limit, other limits are often not marked, values filed in µg/mL are converted to µM
In assay [1] the test system is Escherichia coli ATCC 25922.
The test system of assay [2] is Staphylococcus aureus NCTC 8325.
Assay [3] relates to Salmonella enterica subsp. enterica serovar Typhimurium C77-31.
Assay [4] deals with Staphylococcus aureus ATCC 25923.
Assay [5] has as its system Staphylococcus aureus ATCC 29213.
The test system of assay [6] is Staphylococcus epidermidis ATCC 12228.
Assay [7] concerns Pseudomonas aeruginosa ATCC 27853.
In assay [8] the test system is Salmonella enterica subsp. enterica serovar Typhimurium ATCC 14028.
Assay [9] relates to Staphylococcus aureus ATCC 43300.
Assay [10] deals with Klebsiella pneumoniae ATCC 13883.

In the case of `CC[C@H](C)[C@@H]1NC(=O)[C@H](CC(C)C)NC(=O)[C@@H](NC(=O)[C@@H](NC(=O)[C@H](Cc2ccccc2)NC(=O)[C@H](CCCCN)NC(=O)[C@@H]2CCCN2C(=O)[C@@H](NC(=O)[C@H](CCSC)NC(=O)[C@H](CO)NC(=O)[C@H](C)NC(=O)[C@H](C)NC(=O)[C@H](CC(C)C)NC(=O)CNC(=O)[C@H](C)NC(=O)[C@H](CC(C)C)NC(=O)[C@H](CCSC)NC(=O)[C@@H]2CCCN2C(=O)[C@H](CC(C)C)NC(=O)[C@@H](N)Cc2ccccc2)C(C)C)C(C)C)CSSC[C@@H](C(=O)O)NC(=O)[C@H](CCCCN)NC(=O)[C@H](CCCCN)NC(=O)[C@H]([C@@H](C)O)NC1=O` [FLPMLAGLAASMVPKFVCLITKKC], the figures for the MIC in [1] and in assay [2] were 16 µM (≈ 41.3 µg/mL) and 8 µM (≈ 20.6 µg/mL), respectively.

Turning to `CC[C@H](C)[C@H](NC(=O)CNC(=O)[C@H](CO)NC(=O)[C@H](CC(C)C)NC(=O)[C@H](CC(C)C)NC(=O)[C@H](CCCCN)NC(=O)CNC(=O)[C@@H](NC(=O)[C@@H](NC(=O)[C@@H]1CCCN1C(=O)[C@H](CC(C)C)NC(=O)[C@@H](NC(=O)[C@@H](NC(=O)[C@@H]1CCCN1C(=O)[C@H](CC(C)C)NC(=O)[C@@H](N)Cc1ccccc1)C(C)C)[C@@H](C)CC)C(C)C)[C@@H](C)CC)C(=O)N[C@@H](CC(C)C)C(N)=O` [FLPVILPVIGKLLSGIL], the MIC is above 50 µM in assay [1] and 25 µM (≈ 44.8 µg/mL) in assay [2].

As for `CC[C@H](C)[C@H](NC(=O)[C@H](CO)NC(=O)[C@H](CC(C)C)NC(=O)[C@H](Cc1ccccc1)NC(=O)CN)C(=O)N[C@@H](CC(C)C)C(=O)N[C@@H](CCCCN)C(=O)N[C@@H](CCCCN)C(=O)N[C@H](C(=O)N[C@@H](CC(C)C)C(=O)N[C@@H](CCCCN)C(=O)N[C@H](C(=O)N[C@@H](CCSC)C(=O)N[C@@H](C)C(=O)N[C@@H](Cc1cnc[nH]1)C(=O)N[C@@H](CCSC)C(=O)N[C@@H](CCCCN)C(N)=O)C(C)C)C(C)C` [GFLSILKKVLKVMAHMK], the minimal inhibitory concentration (MIC) against Bacillus subtilis 168 stood at 0.9 µM (≈ 1.75 µg/mL); against Escherichia coli B, 1.8 µM (≈ 3.5 µg/mL); in the assay on Pseudomonas aeruginosa, 27.5 µM (≈ 53.4 µg/mL); with Staphylococcus aureus, 5 µM (≈ 9.71 µg/mL).

Regarding `CC[C@H](C)[C@H](NC(=O)CN)C(=O)N[C@@H](Cc1c[nH]c2ccccc12)C(=O)N[C@@H](CC(=O)O)C(=O)N[C@H](C(=O)N[C@@H](CC(C)C)C(=O)N[C@@H](CCCCN)C(=O)N[C@@H](CC(N)=O)C(=O)N[C@H](C(=O)NCC(=O)N[C@@H](CCCCN)C(=O)N[C@@H](C)C(=O)N[C@H](C(=O)N[C@@H](CC(C)C)C(=O)NCC(=O)N[C@@H](CCCCN)C(=O)N[C@H](C(=O)N[C@@H](CC(C)C)C(=O)N[C@@H](CCC(=O)O)C(=O)N[C@@H](CC(N)=O)C(=O)N[C@H](C(N)=O)C(C)C)C(C)C)C(C)C)C(C)C)[C@@H](C)O` [GIWDTLKNVGKAVLGKVLENV], the results for the minimal inhibitory concentration (MIC) in [1] and in assay [2] were 12.5 µM (≈ 28.2 µg/mL) and at least 50 µM, respectively.

As to `CC[C@H](C)[C@H](NC(=O)[C@H](Cc1cnc[nH]1)NC(=O)[C@H](CCCCN)NC(=O)[C@H](CC(C)C)NC(=O)[C@H](CC(C)C)NC(=O)[C@H](CO)NC(=O)[C@H](CCCCN)NC(=O)[C@H](Cc1c[nH]c2ccccc12)NC(=O)[C@H](CCCCN)NC(=O)CN)C(=O)N[C@@H](CC(C)C)C(=O)N[C@@H](CCCCN)C(N)=O` [GKWKSLLKHILK], the minimum inhibitory concentration (MIC) worked out at 1.2 µM (≈ 1.74 µg/mL) in the assay on Bacillus subtilis 168, 3.7 µM (≈ 5.36 µg/mL) against Escherichia coli B, 34.2 µM (≈ 49.6 µg/mL) in the assay on Pseudomonas aeruginosa and 20 µM (≈ 29 µg/mL) against Staphylococcus aureus.

As for `CC[C@H](C)[C@H](NC(=O)[C@H](Cc1cnc[nH]1)NC(=O)[C@H](CCCCN)NC(=O)[C@H](CC(C)C)NC(=O)[C@H](Cc1c[nH]c2ccccc12)NC(=O)[C@H](CO)NC(=O)[C@H](CCSC)NC(=O)[C@H](Cc1c[nH]c2ccccc12)NC(=O)[C@H](CCCCN)NC(=O)CN)C(=O)N[C@@H](CC(C)C)C(=O)N[C@@H](CCCCN)C(N)=O` [GKWMSWLKHILK], the MIC in the assay with Bacillus subtilis 168 was 1.5 µM (≈ 2.29 µg/mL); in the assay on Escherichia coli B, 3.9 µM (≈ 5.95 µg/mL); with Pseudomonas aeruginosa, 13.5 µM (≈ 20.6 µg/mL); in the assay on Staphylococcus aureus, 10.1 µM (≈ 15.4 µg/mL).

`CC[C@H](C)[C@H](NC(=O)[C@H](Cc1cnc[nH]1)NC(=O)[C@H](CCCCN)NC(=O)[C@H](CC(C)C)NC(=O)[C@H](CC(C)C)NC(=O)[C@H](CO)NC(=O)[C@H](CCC(N)=O)NC(=O)[C@H](Cc1c[nH]c2ccccc12)NC(=O)[C@H](CCCCN)NC(=O)CN)C(=O)N[C@@H](CC(C)C)C(=O)N[C@@H](CCCCN)C(N)=O` [GKWQSLLKHILK]: the MIC turned out to be 2.2 µM (≈ 3.19 µg/mL) in the assay on Bacillus subtilis 168, 8 µM (≈ 11.6 µg/mL) in the assay with Escherichia coli B, 56.7 µM (≈ 82.2 µg/mL) in the assay with Pseudomonas aeruginosa and 25 µM (≈ 36.2 µg/mL) in the assay with Staphylococcus aureus.

For the molecule `CC[C@H](C)[C@H](NC(=O)[C@H](Cc1c[nH]c2ccccc12)NC(=O)[C@H](CCCCN)NC(=O)[C@H](CC(C)C)NC(=O)[C@@H](NC(=O)[C@H](CCCCN)NC(=O)CNC(=O)[C@@H](NC(=O)[C@H](CCCCN)NC(=O)[C@H](CCCCN)NC(=O)[C@H](CC(C)C)NC(=O)[C@@H](NC(=O)[C@H](CCCCN)NC(=O)[C@H](CCCN=C(N)N)NC(=O)[C@@H](NC(=O)[C@@H](NC(=O)[C@H](CCCCN)NC(=O)[C@H](CCCN=C(N)N)NC(=O)[C@H](CC(C)C)NC(=O)[C@H](CCCN=C(N)N)NC(=O)[C@H](CCCN=C(N)N)NC(=O)[C@H](Cc1ccccc1)NC(=O)[C@@H](NC(=O)CN)C(C)C)C(C)C)[C@@H](C)O)C(C)C)[C@@H](C)CC)C(C)C)C(N)=O` [GVFRRLRKVTRKVLKKIGKVLKWI], the MIC in [1] amounted to 4 µM (≈ 11.7 µg/mL); in the assay with Escherichia coli UB1005, 4 µM (≈ 11.7 µg/mL); in [3], 4 µM (≈ 11.7 µg/mL); in assay [4], 4 µM (≈ 11.7 µg/mL); in assay [5] it was 4 µM (≈ 11.7 µg/mL); in assay [6] it was 2 µM (≈ 5.84 µg/mL).

Turning to `CC[C@H](C)[C@H](N)C(=O)N[C@@H](CCCN=C(N)N)C(=O)N[C@H](C(=O)N[C@@H](CCCN=C(N)N)C(=O)N[C@H](C(=O)N[C@@H](CCCN=C(N)N)C(=O)N1CCC[C@H]1C(=O)N[C@H](C(=O)N[C@@H](CCCN=C(N)N)C(=O)N[C@H](C(=O)N[C@@H](CCCN=C(N)N)C(=O)N[C@H](C(=O)N[C@@H](CCCN=C(N)N)C(=O)N1CCC[C@H]1C(=O)O)[C@@H](C)CC)[C@@H](C)CC)[C@@H](C)CC)[C@@H](C)CC)[C@@H](C)CC` [IRIRIRPIRIRIRP], the MIC came out at 8 µM (≈ 14.6 µg/mL) in the assay with Escherichia coli UB1005; 8 µM (≈ 14.6 µg/mL) in assay [7]; 16 µM (≈ 29.3 µg/mL) in assay [8]; 16 µM (≈ 29.3 µg/mL) in [3]; 64 µM (≈ 117 µg/mL) in assay [4]; 64 µM (≈ 117 µg/mL) in [9]. In [6], this molecule yielded a minimal inhibitory concentration (MIC) above 128 µM.

Regarding `CC[C@H](C)[C@H](N)C(=O)N[C@@H](CCCN=C(N)N)C(=O)N[C@H](C(=O)N[C@@H](CCCN=C(N)N)C(=O)N1CCC[C@H]1C(=O)N[C@H](C(=O)N[C@@H](CCCN=C(N)N)C(=O)N[C@H](C(=O)N[C@@H](CCCN=C(N)N)C(=O)N1CCC[C@H]1C(=O)O)[C@@H](C)CC)[C@@H](C)CC)[C@@H](C)CC` [IRIRPIRIRP], the minimal inhibitory concentration (MIC) in [1] was above 128 µM; against Escherichia coli UB1005 it was at least 128 µM; in [7] it was above 128 µM; in assay [8] it was above 128 µM; in assay [3] it was at least 128 µM; in assay [4], above 128 µM. Moreover, the MIC in [5], in assay [9] and in [6] was above 128 µM in each case.

For `CC(C)C[C@H](NC(=O)[C@H](CCCN=C(N)N)NC(=O)[C@H](C)NC(=O)[C@H](C)NC(=O)[C@H](Cc1c[nH]c2ccccc12)NC(=O)CNC(=O)[C@H](CCCN=C(N)N)NC(=O)[C@@H](N)CCCN=C(N)N)C(=O)N[C@@H](Cc1ccccc1)C(=O)N[C@@H](C)C(=O)N[C@@H](C)C(=O)N[C@@H](Cc1ccccc1)C(=O)NCC(=O)N[C@@H](CCCN=C(N)N)C(=O)N[C@@H](CCCN=C(N)N)C(N)=O` [RRGWAARLFAAFGRR], the MIC against Acinetobacter baumannii is 4.8 µM (≈ 8.59 µg/mL); in assay [10], 30 µM (≈ 53.7 µg/mL); against Klebsiella pneumoniae, 1.2 µM (≈ 2.15 µg/mL); in assay [4], above 30 µM.

On to `CC(C)C[C@H](NC(=O)[C@H](Cc1c[nH]c2ccccc12)NC(=O)[C@H](CCCCN)NC(=O)[C@H](CCCN=C(N)N)NC(=O)[C@@H](NC(=O)[C@H](Cc1c[nH]c2ccccc12)NC(=O)[C@H](CCCCN)NC(=O)[C@H](CCCN=C(N)N)NC(=O)[C@H](CC(C)C)NC(=O)[C@H](Cc1c[nH]c2ccccc12)NC(=O)[C@@H](N)CCCN=C(N)N)[C@@H](C)O)C(=O)N[C@@H](CCCCN)C(N)=O` [RWLRKWTRKWLK], for which the MIC in assay [1] amounted to 4 µM (≈ 7.02 µg/mL); against Escherichia coli UB1005, 4 µM (≈ 7.02 µg/mL); in [3], 16 µM (≈ 28.1 µg/mL); in [4], 16 µM (≈ 28.1 µg/mL); in [5] it was 8 µM (≈ 14 µg/mL); in assay [6], 8 µM (≈ 14 µg/mL).
